Results: patent US11090304B2 (Amgen Inc., priority 2018, dated 2021)

These molecules were tested against GDP-bound KRAS protein (aa 1-169), containing both G12C and C118A amino acid substitutions (Homo sapiens, UniProt P01116, C118A/G12C) (assay: Coupled nucleotide exchange assay (SOS-mediated, AlphaScreen)). Conditions: 5 min compound pre-incubation.
Assay type: biochemical

Chain of GDP-bound KRAS protein (aa 1-169), containing both G12C and C118A amino acid substitutions (P01116 1-169 isoform P01116-2 G12C/C118A): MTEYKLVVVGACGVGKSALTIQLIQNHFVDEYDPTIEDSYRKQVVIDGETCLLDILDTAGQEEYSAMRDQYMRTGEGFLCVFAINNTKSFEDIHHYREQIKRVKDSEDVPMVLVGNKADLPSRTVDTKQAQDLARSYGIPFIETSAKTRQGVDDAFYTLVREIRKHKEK

SMILES	Coupled exchange IC50 (5 min)
C=CC(=O)N1CCN(c2nc(=O)n(-c3ccccc3C(C)C)c3nc(Cl)c(Cl)cc23)[C@@H](C)C1 (atropisomer, axis not shown; (M)) [Example 61-1-1, (M)-6,7-Dichloro-4-((2S)-2-methyl-4-(2-propenoyl)-1-piperazinyl)-1-(2-(2-propanyl)phenyl)pyrido[2,3-d]pyrimidin-2(1H)-one]	2.94 | nda μM
C=CC(=O)N1CCN(c2nc(=O)n(-c3c(C)ccnc3C(C)C)c3nc(Cl)c(Cl)cc23)[C@@H](C)C1 (atropisomer, axis not shown; (M)) [Example 61-2-2, (M)-6,7-dichloro-1-(4-methyl-2-(2-propanyl)-3-pyridinyl)-4-((2S)-2-methyl-4-(2-propenoyl)-1-piperazinyl)pyrido[2,3-d]pyrimidin-2(1H)-one]	2.37 | nda μM
C=CC(=O)N1CCN(c2nc(=O)n(-c3c(C)ccnc3C(C)C)c3nc(-c4nc(N)ccc4F)c(F)cc23)[C@@H](C)C1 (atropisomer, axis not shown; (M)) [Example 65-2, (M)-7-(6-amino-3-fluoro-2-pyridinyl)-6-fluoro-1-(4-methyl-2-(2-propanyl)-3-pyridinyl)-4-((2S)-2-methyl-4-(2-propenoyl)-1-piperazinyl)pyrido[2,3-d]pyrimidin-2(1H)-one]	1.31 | nda μM
C=CC(=O)N1CCN(c2nc(=O)n(-c3c(C)ccnc3C(C)C)c3nc(-c4cc(F)ccc4O)c(F)cc23)C(C)C1 (atropisomer, axis not shown; (M)) [Example 72-1, (M)-6-Fluoro-7-(5-fluoro-2-hydroxyphenyl)-1-(4-methyl-2-(2-propanyl)-3-pyridinyl)-4-((2S)-2-methyl-4-(2-propenoyl)-1-piperazinyl)pyrido[2,3-d]pyrimidin-2(1H)-one]	1.17 | nda μM
C=CC(=O)N1CCN(c2nc(=O)n(-c3c(C)ccnc3C(C)C)c3nc(-c4cccc(F)c4O)c(F)cc23)[C@@H](C)C1 (atropisomer, axis not shown; (M)) [Example 72-3, (M)-6-fluoro-7-(3-fluoro-2-hydroxyphenyl)-1-(4-methyl-2-(2-propanyl)-3-pyridinyl)-4-((2S)-2-methyl-4-(2-propenoyl)-4-piperazinyl)pyrido[2,3-d]pyrimidin-2(1H)-one]	3.29 | nda μM
C=CC(=O)N1CCN(c2nc(=O)n(-c3c(C)ccnc3C(C)C)c3nc(-c4cccc(O)c4F)c(F)cc23)[C@@H](C)C1 (atropisomer, axis not shown; (M)) [Example 72-5, (M)-6-fluoro-7-(2-fluoro-3-hydroxyphenyl)-1-(4-methyl-2-(2-propanyl)-3-pyridinyl)-4-((2S)-2-methyl-4-(2-propenoyl)-1-piperazinyl)pyrido[2,3-d]pyrimidin-2(1H)-one]	2.91 | nda μM
C=CC(=O)N1C[C@H](C)N(c2nc(=O)n(-c3c(C)ccnc3C(C)C)c3nc(Cl)c(F)cc23)[C@@H](C)C1 (atropisomer, axis not shown; (M)) [Example 72-12, (M)-7-chloro-4-((2S,6S)-2,6-dimethyl-4-(2-propenoyl)-1-piperazinyl)-6-fluoro-1-(4-methyl-2-(2-propanyl)-3-pyridinyl)pyrido[2,3-d]pyrimidin-2(1H)-one]	4.51 | nda μM
C=CC(=O)N1C[C@@H](C)N(c2nc(=O)n(-c3c(C)ccnc3C(C)C)c3nc(Cl)c(Cl)cc23)[C@@H](C)C1 (atropisomer, axis not shown; (M)) [Example 73-11, (M)-6,7-dichloro-4-(cis-2,6-dimethyl-4-(2-propenoyl)-1-piperazinyl)-1-(4-methyl-2-(2-propanyl)-3-pyridinyl)pyrido[2,3-d]pyrimidin-2(1H)-one]	0.625 | nda μM
